This is an account of results in patent US9434734B2, “Substituted pyrazoloquinazolinones and pyrroloquinazolinones as allosteric modulators of group II metabotropic glutamate receptors” (Domain Therapeutics, priority 2012, dated 2016).

As usually defined, the melting point is the temperature, or range, at which the solid turns liquid.

Counter-ions that a name gives are not always drawn.

Turning to `CCn1c(=O)c2ccc(-c3ccc(N)nc3)cc2n2nc(CCOC)cc12.Cl`, the melting point was 163 to 170 °C.
In the case of `Cn1c(=O)c2ccc(-c3cccc(-c4nn[nH]n4)c3)cc2n2nc(-c3ccccc3)cc12` (as salt: sodium) [Example 36, 4-Methyl-2-phenyl-8-[3-(2H-tetrazol-5-yl)-phenyl]-4H-pyrazolo[1,5-a]quinazolin-5-one] it was above 250 °C; in that of `Cl.Cn1c(=O)c2ccc(-c3ccc(N)nc3)cc2n2nc(-c3ccccc3)cc12` [Example 2, 8-(6-Amino-pyridin-3-yl)-4-methyl-2-phenyl-4H-pyrazolo[1,5-a]quinazolin-5-one], 241 to 244 °C; in that of `Cc1ncccc1-c1ccc2c(=O)n(C)c3cc(C4CCOCC4)nn3c2c1.Cl`, 167 to 169 °C.
`CCc1ncccc1-c1ccc2c(=O)n(C)c3cc(-c4cc(C)nc(C)c4)nn3c2c1` (as salt: salt) [Example 120, 2-(2,6-Dimethyl-pyridin-4-yl)-8-(2-ethyl-pyridin-3-yl)-4-methyl-4H-pyrazolo[1,5-a]quinazolin-5-one] showed a melting point above 250 °C.
For `Cl.Cn1c(=O)c2ccc(-c3ccc(N4CCCCC4)nc3)cc2n2nc(-c3ccccc3)cc12` the value was 200 to 203 °C.
In the case of `COc1cccc(-c2ccc3c(=O)n(C)c4cc(-c5ccccc5)nn4c3c2)c1` [Example 11, 8-(3-Methoxy-phenyl)-4-methyl-2-phenyl-4H-pyrazolo[1,5-a]quinazolin-5-one] it was 182 to 185 °C.
As for `Cc1cc(N)nc(C)c1-c1ccc2c(=O)n(C)c3cc(-c4ccccc4)nn3c2c1.Cl`, the melting point was above 250 °C.
In the case of `Cc1ccc(-c2ccc3c(=O)n(C)c4cc(-c5cc(C)nc(C)c5)nn4c3c2)cn1` (as salt: salt) [Example 117, 2-(2,6-Dimethyl-pyridin-4-yl)-4-methyl-8-(6-methyl-pyridin-3-yl)-4H-pyrazolo[1,5-a]quinazolin-5-one] it was above 250 °C; in that of `Cc1cc(-c2cc3n(C)c(=O)c4ccc(-c5ccn[nH]5)cc4n3n2)cc(C)n1.Cl`, above 250 °C; in that of `COCCc1cc2n(C)c(=O)c3ccc(-c4cc(C)nc(C)c4)cc3n2n1.Cl`, 241 to 245 °C.
For `Cn1c(=O)c2ccc(-c3cccc(-c4nn[nH]n4)c3)cc2n2nc(C3CCOCC3)cc12` (as salt: sodium) [Example 96, 4-Methyl-2-(tetrahydro-pyran-4-yl)-8-[3-(2H-tetrazol-5-yl)-phenyl]-4H-pyrazolo[1,5-a]quinazolin-5-one] the value was 219 to 227 °C; for `Cc1cc(-c2ccc3c(=O)n(CC(F)(F)F)c4cc(C5CCOCC5)nn4c3c2)cc(C)n1.Cl`, above 250 °C.
For `COCc1cc2n(C)c(=O)c3ccc(-c4cc(C)nc(C)c4)cc3n2n1.Cl` the value was above 250 °C.
For the molecule `COCc1cccc(-c2ccc3c(=O)n(C)c4cc(-c5ccccc5)nn4c3c2)c1` [Example 9, 8-(3-Methoxymethyl-phenyl)-4-methyl-2-phenyl-4H-pyrazolo[1,5-a]quinazolin-5-one], the melting point fell in the range of 132 to 134 °C.
For `Cn1c(=O)c2ccc(-c3ccc(F)cc3)cc2n2nc(-c3ccccc3)cc12` [Example 12, 8-(4-Fluoro-phenyl)-4-methyl-2-phenyl-4H-pyrazolo[1,5-a]quinazolin-5-one] the value was 178 to 180 °C; for `Cl.Cn1c(=O)c2ccc(-c3ccc(N)nn3)cc2n2nc(C3CCOCC3)cc12`, 140 to 146 °C.
In turn, `CCCn1c(=O)c2ccc(-c3cc(C)nc(C)c3)cc2n2nc(C3CCCC3)cc12.Cl` gave a melting point above 250 °C.
For `COCc1cc2n(C)c(=O)c3ccc(-c4ccc(N)nc4)cc3n2n1.Cl` the value was 235 to 242 °C.
Molecule `Cc1ccc(-c2ccc3c(=O)n(C)c4cc(C5CCOCC5)nn4c3c2)c(C)n1.Cl` yielded a melting point of 231 to 235 °C.
In turn, `Cl.Cn1c(=O)c2ccc(-c3ccc(N4CCOCC4)nc3)cc2n2nc(-c3ccccc3)cc12` had a melting point of 194 to 196 °C.
